Measured values reported in patent US20260231994A1, “TASTE-ENHANCING COMPOSITION, METHOD FOR PRODUCING SAME, FOOD PRODUCT, AND METHOD FOR ENHANCING TASTE OF FOOD PRODUCT” (HOUSE FOODS GROUP INC., priority 2023, published 2026).

Tests used:
Format in all cases: in vivo
[1] = Experiment 6 sensory evaluation of cyclic dipeptides, “top sharp saltiness”
Outline: (§1)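 Reduced-sodium curry roux (44 g in 300 g hot water) was spiked with cyclic dipeptide solutions matching heat-treated coriander or paprika levels, at 0.5% or 1.0% (w/w) final. Three evaluators scored each sample against unspiked reduced-sodium and common roux. Mean scores were graded F to AA.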

[2] = Experiment 6 sensory evaluation of cyclic dipeptides, “middle fullness (enhanced thickness)”
Outline: as §1

[3] = Experiment 1 sensory evaluation of “boosting of flavor” (cyclic dipeptides, coriander); conditions: for “boosting of flavor” Average: cyclic dipeptide aqueous solution (concentration as in heat-treated coriander) at final 0.2% (w/w) in reduced-sodium curry roux dispersion, score 1-5; for “boosting of flavor” Evaluation: cyclic dipeptide aqueous solution at final 0.2% (w/w) in reduced-sodium curry roux dispersion, class of average score; for “boosting of flavor” in words: added to reduced-sodium curry roux dispersion, compared with no addition, unheated coriander or common curry roux
Method: Flour roux was prepared by putting 20 g of flour and 30 g of beef tallow in a pan, then heating with stirring at 120° C. To this flour roux were added 10 g of sodium chloride, 10 g of sugar, 10 g of cornstarch, 5 g of curry powder and 15 g of other seasoning ingredients (vegetable and fruit extracts, yeast extract and seafood extract), and after heat-treatment to 105° C., the mixture was cooled and solidified, to form a block of common curry roux.
The sodium chloride equivalent per 100 g of this curry roux was 10.6 g.
Reduced-sodium curry roux was prepared according to the same procedure, except that the amount of sodium chloride was reduced to 7 g from the amount in the common curry roux in (1).
The sodium chloride equivalent per 100 g of this reduced-sodium curry roux was 7.7 g.
Out of the cyclic dipeptides included in the heat-treated coriander prepared in 1.1. described above, which were confirmed to be increased in 1.2. above, an aqueous solution of the respective 14 cyclic dipeptides shown in the table described below was prepared. The concentration of the cyclic dipeptide in each aqueous solution was set to be equal to its concentration in the heat-treated coriander prepared in 1.1. described above, which was estimated from the ratio of the peak area of the cyclic dipeptide to the peak area of the internal standard (47 μg/g L-lysine-^13C6 monohydrochloride) confirmed in 1.2. described above.
Two dispersions of 44 g of the reduced-sodium curry roux in (2) dispersed in 300 g of hot water were prepared.
To one of them was added the heat-treated coriander or the powdered unheated coriander prepared in 1.1. described above, or the cyclic dipeptide aqueous solution (corresponding to the heat-treated coriander) prepared in (3) above, so that the final concentration was 0.2% (w/w), and a sensory evaluation was carried out.
Forty-four grams of the common curry roux in (1) was dispersed in 300 g of hot water.
The dispersion of reduced-sodium curry roux dispersed in hot water and the dispersion of common curry roux dispersed in hot water were used as comparative controls, and the strength of the flavor was evaluated by four evaluators on the basis of the following evaluation criteria from the viewpoint of “boosting of flavor.” The term “boosting of flavor” in this experiment is an effect concerted by the combination of sodium chloride and other foodstuffs in curry roux, and is an aspect of “saltiness.” Thus, the “flavor” in this experiment can be also expressed as “saltiness.”
The average of the evaluated scores was defined as “F” when it was 1.0 or lower, “C” when it was 1.1 or higher and 1.9 or lower, “B” when it was 2.0 or higher and 2.5 or lower, “A” when it was 2.6 or higher and 2.9 or lower, and “AA” when it was 3.0 or higher.

[4] = Experiment 6 sensory evaluation of cyclic dipeptides, “boosting of last flavor (aftertaste)”
Outline: as §1

[5] = Additive amount coriander 0.5% (heat-treated coriander equivalent aqueous solution, final 0.5% (w/w)), reduced-sodium curry roux
[6] = Additive amount coriander 0.5%, reduced-sodium curry roux
[7] = heat-treated coriander equivalent aqueous solution of cyclic dipeptide, final 1.0% (w/w) in reduced-sodium curry roux dispersion
[8] = heat-treated coriander equivalent aqueous solution of cyclic dipeptide, final 1.0% (w/w) in reduced-sodium curry roux dispersion, 3 evaluators
[9] = Additive amount paprika 0.5% (heat-treated paprika equivalent aqueous solution, final 0.5% (w/w)), reduced-sodium curry roux
[10] = Additive amount paprika 0.5%, reduced-sodium curry roux
[11] = heat-treated paprika equivalent aqueous solution of cyclic dipeptide, final 1.0% (w/w) in reduced-sodium curry roux dispersion
[12] = heat-treated paprika equivalent aqueous solution of cyclic dipeptide, final 1.0% (w/w) in reduced-sodium curry roux dispersion, 3 evaluators

Substance | Top sharp saltiness Average [1, 5] [points] | Top sharp saltiness Evaluation [1, 6] | Top sharp saltiness Evaluation [1, 7] | Top sharp saltiness Average [1, 8] [points] | Middle fullness Average [2, 6] [points] | Middle fullness Evaluation [2, 6] | Middle fullness Evaluation [2, 7] | Middle fullness Average [2, 8] [points] | “boosting of flavor” Average [3] [points] | “boosting of flavor” Evaluation [3] | Bosting of last flavor Average [4, 6] [points] | Bosting of last flavor Evaluation [4, 6] | Bosting of last flavor Evaluation [4, 7] | Bosting of last flavor Average [4, 8] [points] | “boosting of flavor” in words [3] | Top sharp saltiness Average [1, 9] [points] | Top sharp saltiness Evaluation [1, 10] | Top sharp saltiness Evaluation [1, 11] | Top sharp saltiness Average [1, 12] [points] | Middle fullness Average [2, 10] [points] | also measured
cyclic (Pro-Met) [Coriander ID 53] | 3.0 | AA (“AA” when it was 3.0 or higher) | AA (“AA” when it was 3.0 or higher) | 3.0 | 3.2 | AA (“AA” when it was 3.0 or higher) | AA (“AA” when it was 3.0 or higher) | 3.0 | 2.3 | B (“B” when it was 2.0 or higher and 2.5 or lower) | 3.0 | AA (“AA” when it was 3.0 or higher) | AA (“AA” when it was 3.0 or higher) | 3.8 | – | – | – | – | – | – | –
cyclic (Phe-Ala) [Coriander ID 33] | 2.3 | B (“B” when it was 2.0 or higher and 2.5 or lower) | B (“B” when it was 2.0 or higher and 2.5 or lower) | 2.0 | 2.5 | B (“B” when it was 2.0 or higher and 2.5 or lower) | B (“B” when it was 2.0 or higher and 2.5 or lower) | 2.5 | 3.0 | AA (“AA” when it was 3.0 or higher) | 2.5 | B (“B” when it was 2.0 or higher and 2.5 or lower) | B (“B” when it was 2.0 or higher and 2.5 or lower) | 2.5 | comparable flavor to that of the dispersion of common curry roux | – | – | – | – | – | –
cyclic (Ala-Pro) [Coriander ID 23] | – | – | – | – | – | – | – | – | 2.0 | B (“B” when it was 2.0 or higher and 2.5 or lower) | – | – | – | – | – | 2.3 | B (“B” when it was 2.0 or higher and 2.5 or lower) | A (“A” when it was 2.6 or higher and 2.9 or lower) | 2.7 | 2.2 | Middle fullness Evaluation [2, 10]: B (“B” when it was 2.0 or higher and 2.5 or lower); Middle fullness Evaluation [2, 11]: AA (“AA” when it was 3.0 or higher); Middle fullness Average [2, 12]: 3.0 points; Bosting of last flavor Average [4, 10]: 2.2 points; Bosting of last flavor Evaluation [4, 10]: B (“B” when it was 2.0 or higher and 2.5 or lower); Bosting of last flavor Evaluation [4, 11]: AA (“AA” when it was 3.0 or higher); Bosting of last flavor Average [4, 12]: 3.0 points
cyclic (Ala-Val) [Coriander ID 27] | 2.3 | B (“B” when it was 2.0 or higher and 2.5 or lower) | B (“B” when it was 2.0 or higher and 2.5 or lower) | 2.5 | 2.2 | B (“B” when it was 2.0 or higher and 2.5 or lower) | AA (“AA” when it was 3.0 or higher) | 3.0 | 3.0 | AA (“AA” when it was 3.0 or higher) | 2.3 | B (“B” when it was 2.0 or higher and 2.5 or lower) | A (“A” when it was 2.6 or higher and 2.9 or lower) | 2.7 | comparable flavor to that of the dispersion of common curry roux | – | – | – | – | – | –
cyclic (Arg-Pro) [Coriander ID 45] | 2.0 | B (“B” when it was 2.0 or higher and 2.5 or lower) | C (“C” when it was 1.1 or higher and 1.9 or lower) | 1.8 | 2.5 | B (“B” when it was 2.0 or higher and 2.5 or lower) | B (“B” when it was 2.0 or higher and 2.5 or lower) | 2.0 | 2.0 | B (“B” when it was 2.0 or higher and 2.5 or lower) | 2.8 | A (“A” when it was 2.6 or higher and 2.9 or lower) | B (“B” when it was 2.0 or higher and 2.5 or lower) | 2.2 | – | – | – | – | – | – | –
cyclic (Pro-His) [Coriander ID 15] | 2.2 | B (“B” when it was 2.0 or higher and 2.5 or lower) | B (“B” when it was 2.0 or higher and 2.5 or lower) | 2.0 | 2.5 | B (“B” when it was 2.0 or higher and 2.5 or lower) | AA (“AA” when it was 3.0 or higher) | 3.0 | 3.0 | AA (“AA” when it was 3.0 or higher) | 2.5 | B (“B” when it was 2.0 or higher and 2.5 or lower) | AA (“AA” when it was 3.0 or higher) | 3.0 | comparable flavor to that of the dispersion of common curry roux | – | – | – | – | – | –
cyclic (Gly-Val) [Coriander ID 21] | – | – | – | – | – | – | – | – | 2.3 | B (“B” when it was 2.0 or higher and 2.5 or lower) | – | – | – | – | – | 2.3 | B (“B” when it was 2.0 or higher and 2.5 or lower) | C (“C” when it was 1.1 or higher and 1.9 or lower) | 1.7 | 2.3 | Middle fullness Evaluation [2, 10]: B (“B” when it was 2.0 or higher and 2.5 or lower); Middle fullness Evaluation [2, 11]: B (“B” when it was 2.0 or higher and 2.5 or lower); Middle fullness Average [2, 12]: 2.0 points; Bosting of last flavor Average [4, 10]: 2.5 points; Bosting of last flavor Evaluation [4, 10]: B (“B” when it was 2.0 or higher and 2.5 or lower); Bosting of last flavor Evaluation [4, 11]: B (“B” when it was 2.0 or higher and 2.5 or lower); Bosting of last flavor Average [4, 12]: 2.2 points
cyclic (Thr-Pro) [Coriander ID 14] | – | – | – | – | – | – | – | – | 3.3 | AA (“AA” when it was 3.0 or higher) | – | – | – | – | comparable flavor to that of the dispersion of common curry roux | 2.2 | B (“B” when it was 2.0 or higher and 2.5 or lower) | B (“B” when it was 2.0 or higher and 2.5 or lower) | 2.0 | 2.0 | Middle fullness Evaluation [2, 10]: B (“B” when it was 2.0 or higher and 2.5 or lower); Middle fullness Evaluation [2, 11]: B (“B” when it was 2.0 or higher and 2.5 or lower); Middle fullness Average [2, 12]: 2.5 points; Bosting of last flavor Average [4, 10]: 2.2 points; Bosting of last flavor Evaluation [4, 10]: B (“B” when it was 2.0 or higher and 2.5 or lower); Bosting of last flavor Evaluation [4, 11]: B (“B” when it was 2.0 or higher and 2.5 or lower); Bosting of last flavor Average [4, 12]: 2.5 points
